Laboratory results from patent US20240124528A1, “ANTAGONIST OF INTERLEUKIN-17B RECEPTOR (IL-17RB) AND USE THEREOF” (Academia Sinica, priority 2020, published 2024).

How the values were obtained:
CFPAC1-GFP/Luc cells = assay: Orthotopic CFPAC1-GFP/Luc xenograft pancreatic cancer model in NOD-SCID mice; format: in vivo, mouse
[1] = tested on: pancreatic cancer cells expressing IL-17RB; assay: Invasion assay after peptide treatment; format: cell-based, human; conditions: CFPAC1 and PDX-derived cells treated with peptide
Excerpt: FIGS. 7A to 7J include charts showing that disruption of the interaction between IL-17RB and MLK4 by the loop peptide blocks oncogenic progression. (FIG. 7A) Peptides TAT48-57 (Control) (SEQ ID NO: 21) and TAT-IL-17RB403-416 (Loop) (SEQ ID NO: 30) used for the following experiments. (FIG. 7B) Immunoblotting analysis of IL-17RB binding to MLK4 with Loop peptide treatment. 293T cells expressing Flag-MLK4 and HA-IL-17RB were pretreated with the control and loop peptides with different dose (0, 0.1, 1, 10, 50, 100 ng/ml) for 30 mins, and then added rIL-17B for 30 mins. […] CCL20 and TFF/mRNA expression of these cells were measured by RT-qPCR (n=3) (FIG. 7D), the same cells were for invasion assay (n=4) (FIG. 7E) and SACF assay (n=4) (FIG. 7F). […] (FIG. 7I) The experimental EKP mice (n=7 for each group) were euthanized at Day 56, and the metastatic tumor nodules in the lungs were counted. […]
FIGS. 19A to 19D include charts showing that treatment with the loop peptide suppresses aggressive behavior of patient-derived pancreatic tumor cells. […] (FIG. 19C and FIG. 19D) These cells were measured by RT-qPCR for the cytokine gene mRNA expression (n=3), or for Invasion assay (n=4) (FIG. 19C) and SACF assay (n=4) (FIG. 19D). […]

[2] = tested on: peripheral blood mononuclear cells (PBMCs); assay: IL-17E-induced IL-4 and IL-13 mRNA expression in PBMCs (RT-qPCR); format: cell-based; conditions: peptide pretreatment
Procedure: (FIG. 24A) Flow chart describing the experimental design for testing the effects of anti-IL-17RB antibody and loop peptide on IL-17E-induced expression of IL-4 and IL-13 in peripheral blood mononuclear cells (PBMCs). PBMCs were purified by Ficoll-paque and used for the following experiments. (FIG. 24B to FIG. 24E) IL-4 and IL-13 expression induced by IL-17B or IL-17E in the PBMCs was determined by RT-qPCR after mIgG or anti-IL-17RB antibody pretreatment (FIG. 24B and FIG. 24C) and control or loop peptide pretreatment (FIG. 24D and FIG. 24E), respectively. (FIG. 24F and FIG. 24G) The DCs derived from mouse bone marrow were treated with the control or loop peptides, separately. (FIG. 24F) Flow cytometry analysis using anti-CD80, CD86 and MHC-II antibodies was performed to determine the activity of the DCs after incubation with the control or loop peptides for 48 hrs. (FIG. 24G) The activities of DCs were quantified by gating the area of the CD80, CD86 and MHC-II-positive cells (n=3). Data are mean±s.d.

[3] = tested on: PDX-derived tumor cells (PC080, PC084); assay: Aggressive behavior of PDX-derived pancreatic tumor cells (RT-qPCR, invasion, SACF); format: cell-based, human; conditions: peptides 30 mins, then 50 ng/ml rIL-17B
Procedure: FIGS. 19A to 19D include charts showing that treatment with the loop peptide suppresses aggressive behavior of patient-derived pancreatic tumor cells. (FIG. 19A) CFPAC1 cells were treated with Alexa Fluor 568-labeled or non-labeled cold peptides of TAT48-57 (Control) and TAT-IL-17R403-416 (Loop) for 30 mins, respectively. Confocal microscopy was used for visualization of peptide penetration into cells. (FIG. 19B) The PDX-derived tumor cells (PC080 left, PC084 right) were pretreated with the peptides for 30 mins and then treated with 50 ng/ml rIL-17B for 2 hrs in serum-free conditions. (FIG. 19C and FIG. 19D) These cells were measured by RT-qPCR for the cytokine gene mRNA expression (n=3), or for Invasion assay (n=4) (FIG. 19C) and SACF assay (n=4) (FIG. 19D). Data in (FIG. 19B—FIG. 19D) are mean±s.d. * P<0.05, **P<0.001 by two-tailed Student's t-test.

[4] = NOD-SCID mice, peptide 160 μg/100 μl PBS i.p. twice per week

RKKRRQRRRVCDGTCGKSEGSPS (IL-17RB inhibitory peptide, fusion protein) [loop peptide]
distant metastases of the pancreatic tumors to liver and lung (IVIS) (CFPAC1-GFP/Luc cells; NOD-SCID mice euthanized at Day 34): significantly suppressed | expression of phospho-IL-17RB in the pancreatic tumors (IHC) (CFPAC1-GFP/Luc cells; [4]): inhibited | lifespan (Kaplan-Meier survival analysis) (CFPAC1-GFP/Luc cells; [4]): prolonged | tumor growth (IVIS bioluminescence) (CFPAC1-GFP/Luc cells; [4]): significantly impeded | pancreatic tumor progression (CFPAC1-GFP/Luc cells; orthotopic xenograft, NOD-SCID mice): suppresses | invasion ability [1]: diminished | IL-17E-induced IL-4 and IL-13 mRNA expression [2]: does not suppress | aggressive behavior of patient-derived pancreatic tumor cells [3]: suppresses
